Molecules are shown by their SMILES.

Here are results for four molecules from PMC9964505 (International Journal of Molecular Sciences, 2023).

Series [1] deals with persistent mechanical pain in mouse models. Also on record: method as in PMID 34039739. The conditions noted are these: hindpaw injection; mouse plantar incision, CFA and paclitaxel models; cited from earlier work.
For series [2], the system named is mechanical hypersensitivity in a mouse SNI model. Also on record: method as in PMID 34039739. The conditions noted are these: intra-plantar injection; cited from earlier work.
For a further series, the system named is uninjured mice. Also on record: method as in PMID 34039739. The settings on record: peripheral dosing; cited from earlier work.
For series [3], the system named is trinitrobenzene sulfonic acid-induced colonic hypersensitivity in male rats. As to the kind of experiment: colonic distension test in TNBS-induced colonic hypersensitivity model. It counts as in vivo, rat. The conditions noted are these: for mean percentual colonic anti-hypersensitivity activity: mean of four trials (30, 50, 70, 120 min).
The nature of series [4]: terminal plasma and brain exposure in female rats (PRS study). It counts as in vivo, rat. The conditions noted are these: 3-30 mg/kg p.o. How it is done:
Briefly, total blood was collected by intra-cardiac puncture on anaesthetized (3% Isoflurane, 3 L/min) animals into pre-cooled K3EDTA tubes. […] At least 100–200 µL of plasma was gently collected and immediately frozen at −80 °C. After decapitation, the whole brain was collected, rinsed with fresh ice-cold 0.9% NaCl solution, and thereafter frozen in dry ice and stored in a polypropylene tube at −80 °C.

Series [5] can be described thus: plasma and brain exposure in male rats (CCI study and satellite rats). It counts as in vivo, rat. The conditions noted are these: independent of dose or sampling time. Here is the method:
Terminal samples for concentration analyses were also collected from HC-070-treated sciatic nerve-injured male animals at the end of the paw pressure test, and from female rats at the end of the last colonic distension test in the partial restraint stress (PRS) study. Briefly, total blood was collected by intra-cardiac puncture on anaesthetized (3% Isoflurane, 3 L/min) animals into pre-cooled K3EDTA tubes. Samples were gently mixed, placed on ice, and centrifuged at the latest within 30 min after collection at 1600× g or 1710× g for 10 min at 4 °C. At least 100–200 µL of plasma was gently collected and immediately frozen at −80 °C. After decapitation, the whole brain was collected, rinsed with fresh ice-cold 0.9% NaCl solution, and thereafter frozen in dry ice and stored in a polypropylene tube at −80 °C.

Series [6] in a line: plasma protein binding, rapid equilibrium dialysis. It counts as in vitro ADME. The conditions noted are these: rat plasma, 1 µg/mL, 37 °C, 4 h. How it is done: Plasma protein binding studies were carried out in male Wistar Hannover rat plasma with heparin as the anticoagulant. All plasma samples were obtained from BioreclamationIVT (Baltimore, MD, USA). A Pierce Rapid Equilibrium Dialysis Device (RED) was used for the experiments. Aliquots of plasma (300 µL) containing the compound of interest (1 µg/mL) and phosphate-buffered saline (PBS) (500 µL) were added to the sample chamber and buffer chamber, respectively, on the RED device. The loaded dialysis plate was sealed and placed on a pre-heated shaker, and incubated at physiological temperature (+37 °C) for 4 h. After the incubation, aliquots of 50 µL for the donor and 200 µL for the receiver were removed from the chambers and placed into a 96-well plate. Plasma (50 µL) was added to the wells containing the receiver samples and 200 µL of PBS was added to the wells containing the donor samples. Two volumes of ACN were added to each well, and the samples were mixed and centrifuged, after which the supernatant was analysed by LC-MS/MS.

A short description of series [7]: brain homogenate binding, rapid equilibrium dialysis. The settings on record: as fraction. It counts as in vitro ADME, rat. Here is the method: The brain homogenate binding study was carried out in male Wistar Hannover brain homogenate, obtained from BioreclamationIVT (Baltimore, MD, USA). Brains were homogenized with two volumes of PBS prior to initiating the experiment. The instrumentation, volume ratios, incubation conditions, and sample preparation were the same as described above for plasma protein binding (brain homogenate used instead of plasma).
On the technique in general: Equilibrium dialysis compares concentrations on both sides of a semipermeable membrane.

The subject of the next series is incised mice. On the set-up: method as in PMID 34039739. The conditions noted are these: hindpaw administration; cited from earlier work.
The next series deals with mice. The conditions noted are these: mouse, in vivo, po; cited from earlier work.
The subject of series [8] is partial restraint stress-induced colonic hypersensitivity in female rats. As to the kind of experiment: colonic distension test in partial restraint stress model. The conditions noted are these: for percentual anti-hypersensitivity activity on colonic hypersensitivity: mean of three trials.
Procedure: Animals were placed for 2 h in a plexiglas restraint cylinder in order to restrict, but not impede, body movements. Naïve control animals were allowed to move freely in their cages. Immediately after completion of the 2 h restraint stress period, 3 consecutive determinations of colonic sensitivity were performed every 20 min.
Colonic sensitivity was assessed by measuring the intra-colonic pressure required to induce a pain-related behavioral response during colonic distension (Electronic barostat, Distender Series IIRTM). Sedation is considered as a confounding factor in the assessment of pain, and therefore all experiments were performed in non-sedated conscious rats. In order to reduce bias, all experiments were performed by the same dedicated personnel within a study. The visceral pressure range was studied from 5 to 75 mmHg, but pain responses were typically evident at 30–35 mmHg. Briefly, a 5 cm balloon was gently inserted into the colon of conscious rats at 7 to 10 cm from the anus, and the catheter was taped to the base of the tail. After a 30 min acclimation period with the inserted balloon, colonic pressure was increased by 5 mmHg steps every 30 s, from 5 to 75 mmHg (cut-off), until pain-related elevation of the hind part of the rat body and/or a clearly visible abdominal contraction corresponding to severe cramp were evident.
The formula: ((Distension thresholdTNBS/PRS + veh − Distension thresholdnaïve + veh)/(Distension thresholdnaïve + veh)) × 100, was used to calculate percentual variation due to trinitrobenzene sulfonic acid administration or partial restraint stress, as compared to naïve rats. […] Statistical analyses were conducted using GraphPad Prism (version 8.4.2) and p < 0.05 was considered to represent a significant difference.
For series [9], the system named is CCI-induced mechanical hypersensitivity in male rats. As to the kind of experiment: paw pressure test in chronic constriction injury (CCI) model.
Procedure: Prior to behavioral studies, the rats were habituated to the experimental conditions and handling. The common sciatic nerve of the right hindpaw was injured at the level of the middle of the thigh. Proximal to the sciatic trifurcation, four loose ligatures were tied around it with about 1 mm spacing using Mersilk sutures in anaesthetized rats (Xylazine 10 mg/kg i.p., Ketamine 60 mg/kg i.p.). Great care was taken to tie the ligatures, such that the diameter of the nerve was seen to be just barely constricted. Sham animals received only a skin and muscle incision. Fourteen days after the surgery, individual baseline values of the withdrawal threshold evoked by squeezing of the hind limb between a flat surface and a blunt pointer with an analgesimeter (Ugo Basile, Gemonio, Italy) were determined on both hindpaws while the animal was gently held in a restrained position. The analgesimeter exerted a steadily increasing force, and the reaction threshold was determined as the pressure (g) required to elicit paw withdrawal and/or vocalization. […] Dosing and testing were performed in a random order.
Statistical analyses were conducted using GraphPad Prism (version 8.4.2) and p < 0.05 was considered to represent a significant difference.
In series [10] the test system is mustard oil-induced visceral pain-related behaviors and hindpaw mechanical hypersensitivity. The settings on record: intraperitoneal, and oral to a lesser extent; cited from earlier work.
For series [11], the system named is rat spared nerve injury model of neuropathic pain. The conditions noted are these: amygdaloid application; cited from earlier work.

Consider `c1ccc(Cn2c(NCc3ccco3)nc3ccccc32)cc1` [AC1903], for which the “effect on persistent mechanical pain” value in series [1] is reported as “prevents the persistent mechanical pain”. In [2], the “effect on mechanical hypersensitivity” value is recorded as “failed to attenuate”. The “effect on naïve mechanical sensitivity” value with uninjured mice is “did not change”.
For the molecule `Cn1c(=O)n(CCCO)c(=O)c2c1nc(Oc1cccc(Cl)c1)n2Cc1ccc(Cl)cc1` [HC-070], the “effect on TNBS-induced colonic hypersensitivity (colonic distension threshold)” value in series [3] (3 mg/kg p.o., at 70 and 120 min) was “significantly and in a dose-dependent manner attenuated”; in [3] (10 mg/kg p.o., all time points (30-120 min)), “reversed”; in series [3] (30 mg/kg p.o., all time points (30-120 min)) it was “reversed”. Moreover, the “mean percentual colonic anti-hypersensitivity activity” value in series [3] (3 mg/kg p.o.) is listed as 58%; in [3] (10 mg/kg p.o.), 99%; in series [3] (30 mg/kg p.o.), 134%. For the same molecule, the “KP,uu,BR (partitioning coefficient between unbound brain and plasma exposures)” value in [4] is given as 0.5–0.8; in [5] it was 0.4–0.6. The molecule also had a plasma protein binding in [6] of 99.5%. Further, the “unbound fraction in rat brain homogenate” value in series [7] is 0.001. Moreover, the “effect on established postoperative mechanical hypersensitivity” value in the series on incised mice is given as “alleviated”. Moreover, the “effect on locomotor activity” value in the series on mice is reported as “nor did oral HC-070 treatment alter the locomotor activity”. The “percentual anti-hypersensitivity activity on colonic hypersensitivity” value in series [8] (3 mg/kg p.o.) is 100%; in series [8] (10 mg/kg p.o.), 181%; in series [8] (30 mg/kg p.o.), 188%. The “effect on colonic sensibility after PRS” value in series [8] (oral doses of 3, 10 and 30 mg/kg) is “dose-dependently restored”. For the same molecule, the “reversal percentage of CCI-induced mechanical hypersensitivity, injured paw” value in [9] (3 mg/kg p.o., 45 min) was 34%; in [9] (10 mg/kg p.o., 75 min), 51%; in [9] (30 mg/kg p.o., 45 min), 62%. Also, the “effect on CCI-induced mechanical hypersensitivity (withdrawal threshold, injured paw)” value in series [9] (10 mg/kg p.o., 75 min) is “significantly attenuated”; in series [9] (30 mg/kg p.o., 45 min), “significantly attenuated”.
`CN1CC[C@]23c4c5ccc(O)c4O[C@H]2[C@@H](O)C=C[C@H]3[C@H]1C5` [morphine]: in series [8] (1 mg/kg s.c.), the “effect on PRS-lowered visceral pain threshold” value was “significant reversal” and the “percentual anti-hypersensitivity activity on colonic hypersensitivity” value turned out to be 272%. For the same molecule, the “effect on mechanical withdrawal threshold of the non-injured control paw” value in [9] (3 mg/kg s.c.) was “statistically significantly increased”. Besides, the “effect on sustained CCI-induced mechanical hypersensitivity (reversal)” value in series [9] (3 mg/kg s.c., first two time points (45, 75 min)) is recorded as “abolished”.
Consider `Cc1cc(N2CCCCC2)nc2ccccc12` [ML-204], for which the “effect on mustard oil-induced visceral pain-related behaviors and hindpaw mechanical hypersensitivity” value in series [10] is listed as “dose-dependently attenuated”. For the same molecule, the “effect on mechanical hypersensitivity and affective-like spontaneous pain-related behavior” value in series [11] is recorded as “dose-dependent suppression”.
